# Data as given in PubChem BioAssay (NCI).
# Several values for one entry are separate records, joined by “and”; a condition that tells them apart may be missing. Equal entries are not always repeated.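 Five compound concentrations were applied to cells in 96-well plates for 48 hours; endpoints were derived by simple linear interpolation of the resulting dose-response curve. The concentration for 50% growth inhibition is given as GI50. TGI marks complete inhibition of growth.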
# What was measured:
# Test in all cases: NCI anticancer screen, dose series, 48 h
# COLO 205 colon = test system: COLO 205 colon
# SNB-75 CNS = test system: SNB-75 CNS
# LOX IMVI melanoma = test system: LOX IMVI melanoma
# NCI-H226 lung = test system: NCI-H226 lung
# SK-MEL-5 melanoma = test system: SK-MEL-5 melanoma
# HCC-2998 colon = test system: HCC-2998 colon
# HS 578T breast = test system: HS 578T breast
# SF-295 CNS = test system: SF-295 CNS
# CCRF-CEM leukemia = test system: CCRF-CEM leukemia
# ACHN renal = test system: ACHN renal
# RXF 393 renal = test system: RXF 393 renal
# BT-549 breast = test system: BT-549 breast
# KM12 colon = test system: KM12 colon
# MDA-MB-231 breast = test system: MDA-MB-231 breast
# CAKI-1 renal = test system: CAKI-1 renal
# HCT-116 colon = test system: HCT-116 colon
# 786-0 renal = test system: 786-0 renal
# HT29 colon = test system: HT29 colon
# UACC-257 melanoma = test system: UACC-257 melanoma
# OVCAR-5 ovarian = test system: OVCAR-5 ovarian
# K-562 leukemia = test system: K-562 leukemia
# A498 renal = test system: A498 renal
# DU-145 prostate = test system: DU-145 prostate
# MDA-MB-435 = test system: MDA-MB-435
# HL-60(TB) leukemia = test system: HL-60(TB) leukemia
# UACC-62 melanoma = test system: UACC-62 melanoma
# T-47D breast = test system: T-47D breast
# SW-620 colon = test system: SW-620 colon
# U251 CNS = test system: U251 CNS
# SF-539 CNS = test system: SF-539 CNS
# SF-268 CNS = test system: SF-268 CNS
# SK-MEL-2 melanoma = test system: SK-MEL-2 melanoma
# SR leukemia = test system: SR leukemia
# SK-MEL-28 melanoma = test system: SK-MEL-28 melanoma
# EKVX NSCLC = test system: EKVX NSCLC
# OVCAR-4 ovarian = test system: OVCAR-4 ovarian
# OVCAR-8 ovarian = test system: OVCAR-8 ovarian
# A549 NSCLC = test system: A549 NSCLC
# SNB-19 CNS = test system: SNB-19 CNS
# NCI-H23 lung = test system: NCI-H23 lung
# SK-OV-3 ovarian = test system: SK-OV-3 ovarian
# HCT-15 colon = test system: HCT-15 colon
# NCI-H460 lung = test system: NCI-H460 lung
# UO-31 renal = test system: UO-31 renal
# MCF7 breast = test system: MCF7 breast
# MALME-3M melanoma = test system: MALME-3M melanoma
# SN12C renal = test system: SN12C renal
# HOP-62 NSCLC = test system: HOP-62 NSCLC
# HOP-92 NSCLC = test system: HOP-92 NSCLC
# M14 melanoma = test system: M14 melanoma
# OVCAR-3 ovarian = test system: OVCAR-3 ovarian
# TK-10 renal = test system: TK-10 renal
# NCI/ADR-RES ovarian = test system: NCI/ADR-RES ovarian
smiles,measurement,setting,value
O=C1NC2C(CC(O)C(O)C2O)c2cc3c(c(O)c21)OCO3 (stereo not drawn),GI50,COLO 205 colon,0.0255 µM and < 0.01 µM
same,TGI,COLO 205 colon,0.127 µM and 0.0156 µM
COc1ccc(C(=S)N2CCN(c3cccc(C)c3)CC2)cc1OC,GI50,SNB-75 CNS,2.16 µM
same,TGI,SNB-75 CNS,11.9 µM
same,GI50,LOX IMVI melanoma,5.46 µM
same,TGI,LOX IMVI melanoma,> 100 µM
same,GI50,NCI-H226 lung,> 100 µM
same,TGI,NCI-H226 lung,> 100 µM
same,GI50,SK-MEL-5 melanoma,4.55 µM
same,TGI,SK-MEL-5 melanoma,> 100 µM
same,GI50,HCC-2998 colon,5.41 µM
same,TGI,HCC-2998 colon,> 100 µM
same,GI50,HS 578T breast,3.16 µM
same,TGI,HS 578T breast,31.7 µM
same,GI50,SF-295 CNS,4.26 µM
same,TGI,SF-295 CNS,44.8 µM
same,GI50,CCRF-CEM leukemia,> 100 µM
same,TGI,CCRF-CEM leukemia,> 100 µM
same,GI50,ACHN renal,5.92 µM
same,TGI,ACHN renal,> 100 µM
same,GI50,RXF 393 renal,6.05 µM
same,TGI,RXF 393 renal,> 100 µM
same,GI50,BT-549 breast,6.31 µM
same,TGI,BT-549 breast,> 100 µM
same,GI50,KM12 colon,2.82 µM
same,TGI,KM12 colon,> 100 µM
same,GI50,MDA-MB-231 breast,5.85 µM
same,TGI,MDA-MB-231 breast,> 100 µM
same,GI50,CAKI-1 renal,3.21 µM
same,TGI,CAKI-1 renal,> 100 µM
same,GI50,HCT-116 colon,3.47 µM
same,TGI,HCT-116 colon,> 100 µM
same,GI50,786-0 renal,7.54 µM
same,TGI,786-0 renal,> 100 µM
same,GI50,HT29 colon,3.3 µM
same,TGI,HT29 colon,> 100 µM
same,GI50,UACC-257 melanoma,55.4 µM
same,TGI,UACC-257 melanoma,> 100 µM
same,GI50,OVCAR-5 ovarian,> 100 µM
same,TGI,OVCAR-5 ovarian,> 100 µM
same,GI50,K-562 leukemia,1.2 µM
same,TGI,K-562 leukemia,> 100 µM
same,GI50,A498 renal,4.85 µM
same,TGI,A498 renal,> 100 µM
same,GI50,DU-145 prostate,4.59 µM
same,TGI,DU-145 prostate,> 100 µM
same,GI50,MDA-MB-435,1.09 µM
same,TGI,MDA-MB-435,4.04 µM
same,GI50,HL-60(TB) leukemia,1.83 µM
same,TGI,HL-60(TB) leukemia,> 100 µM
same,GI50,UACC-62 melanoma,4.1 µM
same,TGI,UACC-62 melanoma,> 100 µM
same,GI50,T-47D breast,4.33 µM
same,TGI,T-47D breast,> 100 µM
same,GI50,SW-620 colon,3.04 µM
same,TGI,SW-620 colon,> 100 µM
same,GI50,U251 CNS,5.8 µM
same,TGI,U251 CNS,> 100 µM
same,GI50,SF-539 CNS,5.1 µM
same,TGI,SF-539 CNS,> 100 µM
same,GI50,SF-268 CNS,6.18 µM
same,TGI,SF-268 CNS,86.8 µM
same,GI50,SK-MEL-2 melanoma,47.5 µM
same,TGI,SK-MEL-2 melanoma,> 100 µM
same,GI50,SR leukemia,1.53 µM
same,TGI,SR leukemia,> 100 µM
same,GI50,SK-MEL-28 melanoma,5.42 µM
same,TGI,SK-MEL-28 melanoma,> 100 µM
same,GI50,EKVX NSCLC,7.05 µM
same,TGI,EKVX NSCLC,> 100 µM
same,GI50,OVCAR-4 ovarian,57.7 µM
same,TGI,OVCAR-4 ovarian,> 100 µM
same,GI50,OVCAR-8 ovarian,8.47 µM
same,TGI,OVCAR-8 ovarian,> 100 µM
same,GI50,A549 NSCLC,6.37 µM
same,TGI,A549 NSCLC,> 100 µM
same,GI50,SNB-19 CNS,6.61 µM
same,TGI,SNB-19 CNS,> 100 µM
same,GI50,NCI-H23 lung,9.08 µM
same,TGI,NCI-H23 lung,> 100 µM
same,GI50,SK-OV-3 ovarian,7.24 µM
same,TGI,SK-OV-3 ovarian,> 100 µM
same,GI50,HCT-15 colon,3.77 µM
same,TGI,HCT-15 colon,> 100 µM
same,GI50,NCI-H460 lung,3.38 µM
same,TGI,NCI-H460 lung,> 100 µM
same,GI50,UO-31 renal,4.37 µM
same,TGI,UO-31 renal,> 100 µM
same,GI50,MCF7 breast,3.06 µM
same,TGI,MCF7 breast,> 100 µM
same,GI50,MALME-3M melanoma,3.34 µM
same,TGI,MALME-3M melanoma,84.4 µM
same,GI50,SN12C renal,6.85 µM
same,TGI,SN12C renal,> 100 µM
same,GI50,HOP-62 NSCLC,5.53 µM
same,TGI,HOP-62 NSCLC,29.4 µM
same,GI50,COLO 205 colon,3.88 µM
same,TGI,COLO 205 colon,> 100 µM
same,GI50,HOP-92 NSCLC,10.5 µM
same,TGI,HOP-92 NSCLC,91.4 µM
same,GI50,M14 melanoma,3.18 µM
same,TGI,M14 melanoma,> 100 µM
same,GI50,OVCAR-3 ovarian,2.06 µM
same,TGI,OVCAR-3 ovarian,5.16 µM
same,GI50,TK-10 renal,7.99 µM
same,TGI,TK-10 renal,> 100 µM
Cc1cc2c(cc1C)[n+](Cc1ccc3ccccc3c1)cn2Cc1ccc2ccccc2c1,GI50,SK-MEL-5 melanoma,1.05 µM
same,TGI,SK-MEL-5 melanoma,2.23 µM
same,GI50,NCI/ADR-RES ovarian,6.6 µM
same,TGI,NCI/ADR-RES ovarian,64.4 µM
same,GI50,ACHN renal,1.65 µM
same,TGI,ACHN renal,3.08 µM
same,GI50,OVCAR-5 ovarian,1.13 µM
same,TGI,OVCAR-5 ovarian,2.43 µM
same,GI50,UACC-62 melanoma,0.459 µM
same,TGI,UACC-62 melanoma,1.79 µM
same,GI50,SK-OV-3 ovarian,1.5 µM
same,TGI,SK-OV-3 ovarian,2.9 µM
